Laboratory results published in patent US20030224349A1, “Rapid assay to assess the potential for glucocorticoid analogs to promote the differentiation of human osteoblasts and predict bone safety” (Pfizer Inc., priority 2002, published 2003).
Like-named read-outs stand apart in the source and are kept apart here.

What was measured:
Type in all cases: cell-based
[1] = tested on: primary human osteoblasts; experiment: nodule assay (Von Kossa staining) in primary human osteoblasts; conditions: 28 days of treatment
Experimental: Primary human osteoblasts were cultured as for the alkaline phosphatase assay. After 28 days of test compound treatment, the cultures were fixed with 70% ethanol for 10 minutes, stained with 5% silver nitrate solution and exposed to bright light (Polaroid imaging system with 4×150 watt lamps) for 20 to 30 minutes. Wells were rinsed with water, air dried and nodules documented by micrographs at 300× magnification.

MMP13 = experiment: inhibition of IL-1β-induced MMP13 release in SW1353 chondrocyte cells (ELISA); conditions: Homo sapiens, read-out: IC50, concentration reducing the release of MMP13 50%
[2] = tested on: primary human osteoblasts; experiment: alkaline phosphatase assay in primary human osteoblasts; conditions: 13 days of treatment
Experimental: For alkaline phosphatase testing, primary human osteoblasts (Biowhittaker CC-2538) were plated at a density of 4,400 cells per well in 24-well plates containing OGM medium (Biowhittaker CC-3207) with 10% Fetal Bovine Serum (FBS). The next day media was changed to OGM medium supplemented with 0.1 mM ascorbic acid and 10 mM □-glycerophosphate (differentiation supplements, Biowhittaker CC-4194), and treated with reference and test compounds in a range of doses from 100 nM to 10 uM). Fresh media was added 2× per week.
After 13 days the cells were harvested and extract prepared for analysis.
Differentiation supplement medium was changed every three to four days with fresh test compound addition each time. After seven to thirteen days, the amount of alkaline phosphatase produced by the cultures was quantified using commercial alkaline phosphatase reagent (ALP Reagent) and standard (Sigma M2266 and 245-10, respectively).
Cells were rinsed with 0.9% NaCl, and lysed in alkaline phosphatase assay buffer (150 mM Tris-HCl pH 8, 0.1 mM MgCl2, 0.1 mM ZnCl2, 1% Triton X-100). Prewarmed ALP Reagent was added to lysate or to serial dilutions of the alkaline phosphatase standard and incubated at 37° C. for 30 minutes.
The calorimetric endpoint of absorbance at 405 nm was read on a SpectraMax 340 microplate reader (Molecular Devices), and after extrapolation from standard curve, values were reported in units of enzyme activity per volume.

IL-8 = experiment: inhibition of IL-1β-induced IL-8 release in SW1353 chondrocyte cells (ELISA); conditions: Homo sapiens, SW1353, 24 h, read-out: IC50, concentration reducing the release of IL-8 50%
Experimental: Glucocorticoids have anti-inflammatory efficacy in a variety of cell models. Clinically, glucocorticoids set the benchmark for anti-inflammatory therapeutics.
For efficacy testing, 10,000 SW1353 cells (ATCC# HTB-94) were plated in 96 well plates in DMEM with 10% Fetal Bovine Serum (FBS). The next day media was changed to DMEM without serum.
After 24 hours the amount of MMP13 and IL-8 released into the media was quantified using commercial ELISA assays (Amersham and R&D Systems, respectively).
The concentration of compound reducing the release of MMP13 or IL-8 50% (IC50) was determined from the plot of the drug dose vs. percent inhibition relative to the vehicle control.

IC50 (MMP13; SW1353 cells, 10 ng/ml IL-1β, 24 hours)	induction of alkaline phosphatase production/activity (in words) [2]	induction of alkaline phosphatase production/activity (in words) ([2]; listed as Hydrocortisone)	IC50 (MMP13; SW1353, 24 h)	IC50 (IL-8)	SMILES	nodule formation / mineral deposition (Von Kossa staining, in words) [1]	alkaline phosphatase expression, % of dexamethasone maximum ([2]; at 1 uM)
60 nM	stimulated	dose dependent increase	–	–	C[C@]12CCC(=O)C=C1CC[C@@H]1[C@@H]2[C@@H](O)C[C@@]2(C)[C@H]1CC[C@]2(O)C(=O)CO [hydrocortisone]	dose-dependant nodule formation	about 64%
–	–	–	~1 nM	~1 nM	C[C@@H]1C[C@H]2[C@@H]3CCC4=CC(=O)C=C[C@]4(C)[C@@]3(F)[C@@H](O)C[C@]2(C)[C@@]1(O)C(=O)CO [dexamethasone]	–	–
